# Key:
# Assay in all cases: KINOMEscan binding assay
# TNK2 = target: T1, TNK2 (Homo sapiens, UniProt Q07912); conditions: read-out: % Retention on Solid Support
# T1 construct: purchased DiscoveRx KINOMEscan
# Summary of the method: (§1)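 Kinome-wide competition binding assay (active site-directed), i-CDK9 tested at 1 µM and 10 µM, >400 targets.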
# BRAF = target: T2, BRAF (Homo sapiens, UniProt P15056); conditions: read-out: % Retention on Solid Support
# T2 construct: purchased DiscoveRx KINOMEscan
# Summary of the method: as §1
# PFTK1 = target: T3, PFTK1 (Homo sapiens, UniProt O94921)
# T3 construct: purchased DiscoveRx KINOMEscan
# Summary of the method: as §1
# CDK5 = target: T4, CDK5 (Homo sapiens, UniProt Q00535); conditions: read-out: % Retention on Solid Support
# T4 construct: purchased DiscoveRx KINOMEscan
# Summary of the method: as §1
# IRAK1 = target: T5, IRAK1 (Homo sapiens, UniProt P51617); conditions: read-out: % Retention on Solid Support
# T5 construct: purchased DiscoveRx KINOMEscan
# Summary of the method: as §1
# CLK4 = target: T6, CLK4 (Homo sapiens, UniProt Q9HAZ1); conditions: read-out: % Retention on Solid Support
# T6 construct: purchased DiscoveRx KINOMEscan
# Summary of the method: as §1
# p38-beta = target: T7, p38-beta (Homo sapiens, UniProt Q15759); conditions: read-out: % Retention on Solid Support
# T7 construct: purchased DiscoveRx KINOMEscan
# Summary of the method: as §1
# RIPK5 = target: T8, RIPK5 (Homo sapiens, UniProt Q6XUX3); conditions: 1 µM i-CDK9; read-out: % Retention on Solid Support
# T8 construct: purchased DiscoveRx KINOMEscan
# Summary of the method: as §1
# CDK7 = target: T9, CDK7 (Homo sapiens, UniProt P50613); conditions: read-out: % Retention on Solid Support
# T9 construct: purchased DiscoveRx KINOMEscan
# Summary of the method: as §1
# EGFR(S752-I759del) = target: T10, EGFR(S752-I759del) (Homo sapiens, UniProt P00533, DEL752-759)
# T10 construct: purchased DiscoveRx KINOMEscan
# Summary of the method: as §1
# TRKA = target: T11, TRKA (Homo sapiens, UniProt P04629); conditions: read-out: % Retention on Solid Support
# T11 construct: purchased DiscoveRx KINOMEscan
# Summary of the method: as §1
# MEK6 = target: T12, MEK6 (Homo sapiens, UniProt P52564); conditions: read-out: % Retention on Solid Support
# T12 construct: purchased DiscoveRx KINOMEscan
# Summary of the method: as §1
# CSNK2A1 = target: T13, CSNK2A1 (Homo sapiens, UniProt P68400); conditions: read-out: % Retention on Solid Support
# T13 construct: purchased DiscoveRx KINOMEscan
# Summary of the method: as §1
# EGFR(L858R) = target: T14, EGFR(L858R) (Homo sapiens, UniProt P00533, L858R)
# T14 construct: purchased DiscoveRx KINOMEscan
# Summary of the method: as §1
# CHEK2 = target: T15, CHEK2 (Homo sapiens, UniProt O96017); conditions: read-out: % Retention on Solid Support
# T15 construct: purchased DiscoveRx KINOMEscan
# Summary of the method: as §1
# MYO3B = target: T16, MYO3B (Homo sapiens, UniProt Q8WXR4); conditions: read-out: % Retention on Solid Support
# T16 construct: purchased DiscoveRx KINOMEscan
# Summary of the method: as §1
# MERTK = target: T17, MERTK (Homo sapiens, UniProt Q12866); conditions: read-out: % Retention on Solid Support
# T17 construct: purchased DiscoveRx KINOMEscan
# Summary of the method: as §1
# MAP3K15 = target: T18, MAP3K15 (Homo sapiens, UniProt Q6ZN16); conditions: read-out: % Retention on Solid Support
# T18 construct: purchased DiscoveRx KINOMEscan
# Summary of the method: as §1
# DAPK2 = target: T19, DAPK2 (Homo sapiens, UniProt Q9UIK4); conditions: read-out: % Retention on Solid Support
# T19 construct: purchased DiscoveRx KINOMEscan
# Summary of the method: as §1
# EPHA1 = target: T20, EPHA1 (Homo sapiens, UniProt P21709); conditions: read-out: % Retention on Solid Support
# T20 construct: purchased DiscoveRx KINOMEscan
# Summary of the method: as §1
# GRK7 = target: T21, GRK7 (Homo sapiens, UniProt Q8WTQ7); conditions: read-out: % Retention on Solid Support
# T21 construct: purchased DiscoveRx KINOMEscan
# Summary of the method: as §1
# CAMK4 = target: T22, CAMK4 (Homo sapiens, UniProt Q16566); conditions: read-out: % Retention on Solid Support
# T22 construct: purchased DiscoveRx KINOMEscan
# Summary of the method: as §1
# INSR = target: T23, INSR (Homo sapiens, UniProt P06213); conditions: read-out: % Retention on Solid Support
# T23 construct: purchased DiscoveRx KINOMEscan
# Summary of the method: as §1
# PRKR = target: T24, PRKR (Homo sapiens, UniProt P19525)
# T24 construct: purchased DiscoveRx KINOMEscan
# Summary of the method: as §1
# EGFR(T790M) = target: T25, EGFR(T790M) (Homo sapiens, UniProt P00533, T790M); conditions: 1 µM i-CDK9
# T25 construct: purchased DiscoveRx KINOMEscan
# Summary of the method: as §1
# EGFR(L861Q) = target: T26, EGFR(L861Q) (Homo sapiens, UniProt P00533, L861Q)
# T26 construct: purchased DiscoveRx KINOMEscan
# Summary of the method: as §1
# EGFR(E746-A750del) = target: T27, EGFR(E746-A750del) (Homo sapiens, UniProt P00533, DEL746-750)
# T27 construct: purchased DiscoveRx KINOMEscan
# Summary of the method: as §1
# NEK9 = target: T28, NEK9 (Homo sapiens, UniProt Q8TD19); conditions: read-out: % Retention on Solid Support
# T28 construct: purchased DiscoveRx KINOMEscan
# Summary of the method: as §1
# T1 sequence (Q07912 whole entry): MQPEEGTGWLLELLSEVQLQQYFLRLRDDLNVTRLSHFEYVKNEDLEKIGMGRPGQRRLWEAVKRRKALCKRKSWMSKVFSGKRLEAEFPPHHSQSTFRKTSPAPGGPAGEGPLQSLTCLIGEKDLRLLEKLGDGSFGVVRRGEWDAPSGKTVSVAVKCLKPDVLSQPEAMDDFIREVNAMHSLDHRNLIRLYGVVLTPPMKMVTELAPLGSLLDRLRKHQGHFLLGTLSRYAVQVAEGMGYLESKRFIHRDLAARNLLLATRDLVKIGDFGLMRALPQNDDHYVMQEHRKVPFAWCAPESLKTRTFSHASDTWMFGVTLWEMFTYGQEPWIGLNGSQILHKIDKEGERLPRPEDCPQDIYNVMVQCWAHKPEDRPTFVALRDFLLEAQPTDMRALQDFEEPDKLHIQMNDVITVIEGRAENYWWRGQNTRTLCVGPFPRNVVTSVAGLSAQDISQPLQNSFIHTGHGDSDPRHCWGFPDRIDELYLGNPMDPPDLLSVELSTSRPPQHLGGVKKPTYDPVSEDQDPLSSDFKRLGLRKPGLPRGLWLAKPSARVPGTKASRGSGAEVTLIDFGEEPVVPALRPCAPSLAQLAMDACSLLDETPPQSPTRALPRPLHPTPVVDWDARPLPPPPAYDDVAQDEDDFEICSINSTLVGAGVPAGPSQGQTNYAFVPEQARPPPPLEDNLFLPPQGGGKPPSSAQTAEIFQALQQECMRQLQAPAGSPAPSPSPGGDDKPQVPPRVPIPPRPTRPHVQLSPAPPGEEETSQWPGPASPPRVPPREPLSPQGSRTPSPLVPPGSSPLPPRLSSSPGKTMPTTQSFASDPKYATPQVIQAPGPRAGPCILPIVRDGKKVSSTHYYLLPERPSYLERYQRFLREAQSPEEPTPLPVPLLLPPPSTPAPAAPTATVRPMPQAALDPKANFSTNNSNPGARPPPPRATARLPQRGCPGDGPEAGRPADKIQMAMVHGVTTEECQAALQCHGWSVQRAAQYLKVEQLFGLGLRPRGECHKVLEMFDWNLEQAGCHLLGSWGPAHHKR
# T7 sequence (Q15759 whole entry): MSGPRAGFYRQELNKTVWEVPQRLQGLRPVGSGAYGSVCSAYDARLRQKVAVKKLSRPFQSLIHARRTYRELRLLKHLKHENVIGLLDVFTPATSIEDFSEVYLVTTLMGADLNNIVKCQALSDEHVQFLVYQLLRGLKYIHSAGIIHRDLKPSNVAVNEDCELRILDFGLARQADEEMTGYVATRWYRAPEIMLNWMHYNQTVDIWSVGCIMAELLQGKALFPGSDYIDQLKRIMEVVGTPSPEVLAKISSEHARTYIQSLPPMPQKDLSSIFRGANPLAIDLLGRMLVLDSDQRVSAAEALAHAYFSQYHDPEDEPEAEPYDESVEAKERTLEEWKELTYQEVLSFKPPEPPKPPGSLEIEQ
# T9 sequence (P50613 whole entry): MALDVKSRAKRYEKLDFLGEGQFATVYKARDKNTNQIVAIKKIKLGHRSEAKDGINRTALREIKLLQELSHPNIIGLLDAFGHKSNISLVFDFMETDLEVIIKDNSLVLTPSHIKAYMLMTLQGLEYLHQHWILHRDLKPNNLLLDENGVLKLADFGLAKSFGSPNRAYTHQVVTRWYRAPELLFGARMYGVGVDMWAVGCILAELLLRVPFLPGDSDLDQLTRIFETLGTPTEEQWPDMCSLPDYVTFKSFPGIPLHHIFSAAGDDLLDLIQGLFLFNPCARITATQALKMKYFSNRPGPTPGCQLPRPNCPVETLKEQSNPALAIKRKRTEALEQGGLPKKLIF
# T16 sequence (Q8WXR4 whole entry): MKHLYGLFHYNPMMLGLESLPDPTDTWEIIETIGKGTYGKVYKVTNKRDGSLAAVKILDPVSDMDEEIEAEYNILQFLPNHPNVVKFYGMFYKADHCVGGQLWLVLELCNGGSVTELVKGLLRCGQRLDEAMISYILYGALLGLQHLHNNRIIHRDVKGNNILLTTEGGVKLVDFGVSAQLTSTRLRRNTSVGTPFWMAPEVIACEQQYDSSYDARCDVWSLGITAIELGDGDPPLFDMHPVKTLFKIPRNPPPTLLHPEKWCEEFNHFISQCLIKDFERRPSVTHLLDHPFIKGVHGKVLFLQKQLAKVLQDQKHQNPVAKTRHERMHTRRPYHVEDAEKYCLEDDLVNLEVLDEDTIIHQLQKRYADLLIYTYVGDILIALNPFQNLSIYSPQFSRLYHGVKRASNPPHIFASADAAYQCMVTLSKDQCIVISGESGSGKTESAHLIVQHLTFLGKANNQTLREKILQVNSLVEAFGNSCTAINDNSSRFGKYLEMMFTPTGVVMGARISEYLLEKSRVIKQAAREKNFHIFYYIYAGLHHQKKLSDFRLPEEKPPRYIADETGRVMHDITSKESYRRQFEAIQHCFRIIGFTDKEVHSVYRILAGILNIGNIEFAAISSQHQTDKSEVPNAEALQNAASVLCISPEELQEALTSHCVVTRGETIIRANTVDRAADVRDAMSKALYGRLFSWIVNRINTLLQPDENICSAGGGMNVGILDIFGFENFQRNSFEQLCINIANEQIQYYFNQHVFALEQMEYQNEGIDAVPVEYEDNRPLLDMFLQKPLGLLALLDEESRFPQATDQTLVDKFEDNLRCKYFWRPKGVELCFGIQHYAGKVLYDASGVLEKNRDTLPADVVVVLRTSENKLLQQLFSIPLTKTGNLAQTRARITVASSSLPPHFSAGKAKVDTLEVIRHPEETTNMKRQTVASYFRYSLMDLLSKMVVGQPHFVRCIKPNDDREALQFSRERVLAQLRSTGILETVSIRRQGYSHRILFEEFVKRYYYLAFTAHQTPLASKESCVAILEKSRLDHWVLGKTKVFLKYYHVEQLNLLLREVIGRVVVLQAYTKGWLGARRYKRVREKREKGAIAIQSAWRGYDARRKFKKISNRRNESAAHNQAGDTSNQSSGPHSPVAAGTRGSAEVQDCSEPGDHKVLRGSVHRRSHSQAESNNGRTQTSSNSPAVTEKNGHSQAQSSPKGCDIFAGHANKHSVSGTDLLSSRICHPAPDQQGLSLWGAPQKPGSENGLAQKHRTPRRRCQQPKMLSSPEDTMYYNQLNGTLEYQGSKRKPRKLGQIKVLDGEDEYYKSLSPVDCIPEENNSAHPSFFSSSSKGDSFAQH
# T17 sequence (Q12866 21-999): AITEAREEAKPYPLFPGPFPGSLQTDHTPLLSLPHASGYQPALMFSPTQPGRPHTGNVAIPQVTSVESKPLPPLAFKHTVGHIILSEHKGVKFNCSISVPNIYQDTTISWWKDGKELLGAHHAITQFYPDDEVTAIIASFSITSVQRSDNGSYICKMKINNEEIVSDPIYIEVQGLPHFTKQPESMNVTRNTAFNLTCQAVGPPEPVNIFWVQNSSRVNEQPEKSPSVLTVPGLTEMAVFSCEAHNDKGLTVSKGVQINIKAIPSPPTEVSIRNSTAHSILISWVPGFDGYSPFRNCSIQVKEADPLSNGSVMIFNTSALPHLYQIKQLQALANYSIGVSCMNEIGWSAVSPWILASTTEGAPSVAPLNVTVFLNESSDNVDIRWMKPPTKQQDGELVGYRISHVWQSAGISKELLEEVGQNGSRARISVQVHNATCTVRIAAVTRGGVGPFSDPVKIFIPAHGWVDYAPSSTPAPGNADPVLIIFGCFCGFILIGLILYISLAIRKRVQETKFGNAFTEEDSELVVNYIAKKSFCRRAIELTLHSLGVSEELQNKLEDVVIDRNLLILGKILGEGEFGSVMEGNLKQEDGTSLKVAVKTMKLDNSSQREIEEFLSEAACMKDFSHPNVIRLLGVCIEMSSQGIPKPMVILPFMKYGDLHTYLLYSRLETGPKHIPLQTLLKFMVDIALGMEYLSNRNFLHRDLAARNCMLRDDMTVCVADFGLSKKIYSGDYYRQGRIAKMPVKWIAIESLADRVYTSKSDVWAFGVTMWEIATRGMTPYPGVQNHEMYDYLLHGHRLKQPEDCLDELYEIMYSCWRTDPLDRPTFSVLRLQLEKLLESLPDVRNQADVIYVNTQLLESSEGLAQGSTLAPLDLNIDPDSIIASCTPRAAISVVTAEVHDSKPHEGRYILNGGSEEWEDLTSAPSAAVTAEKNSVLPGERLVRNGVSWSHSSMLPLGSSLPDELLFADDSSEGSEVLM
# T21 sequence (Q8WTQ7 whole entry): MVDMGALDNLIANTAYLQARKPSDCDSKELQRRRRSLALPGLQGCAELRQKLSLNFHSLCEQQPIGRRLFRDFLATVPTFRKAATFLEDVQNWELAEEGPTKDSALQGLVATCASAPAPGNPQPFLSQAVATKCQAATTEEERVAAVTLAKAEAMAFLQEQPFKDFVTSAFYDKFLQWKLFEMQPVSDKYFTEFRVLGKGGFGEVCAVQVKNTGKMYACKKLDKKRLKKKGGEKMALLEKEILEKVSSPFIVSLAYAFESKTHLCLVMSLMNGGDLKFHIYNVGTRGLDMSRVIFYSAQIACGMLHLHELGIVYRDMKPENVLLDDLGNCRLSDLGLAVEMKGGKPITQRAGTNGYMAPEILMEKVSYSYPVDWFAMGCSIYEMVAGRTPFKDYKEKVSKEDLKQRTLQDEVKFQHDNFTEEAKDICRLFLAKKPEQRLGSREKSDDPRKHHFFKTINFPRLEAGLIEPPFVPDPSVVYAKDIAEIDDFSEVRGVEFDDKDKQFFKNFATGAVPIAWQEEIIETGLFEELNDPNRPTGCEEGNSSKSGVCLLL
# T19 sequence (Q9UIK4 whole entry): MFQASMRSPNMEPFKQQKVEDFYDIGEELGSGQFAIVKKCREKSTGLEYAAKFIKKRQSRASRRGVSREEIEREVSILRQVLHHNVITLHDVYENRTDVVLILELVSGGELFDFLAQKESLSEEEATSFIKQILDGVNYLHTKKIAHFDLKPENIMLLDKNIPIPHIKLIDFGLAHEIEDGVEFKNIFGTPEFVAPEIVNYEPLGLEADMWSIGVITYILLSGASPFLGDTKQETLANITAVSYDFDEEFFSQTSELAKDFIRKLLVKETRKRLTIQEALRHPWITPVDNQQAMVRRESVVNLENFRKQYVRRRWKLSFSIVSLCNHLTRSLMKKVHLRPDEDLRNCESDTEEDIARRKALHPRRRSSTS
compound,measurement,setting,value
"N[C@H]1CC[C@H](Nc2cc(-c3cccc(NCc4cccc(F)c4)n3)c(Cl)cn2)CC1 [i-CDK9, N2′-(trans-4-aminocyclohexyl)-5′-chloro-N6-(3-fluorobenzyl)-2,4′-bipyridine-2′,6-diamine]",remaining binding at 1 µM,TNK2; 1 µM i-CDK9,88%
same,remaining binding at 10 µM,TNK2; 10 µM i-CDK9,99%
same,remaining binding at 1 µM,BRAF; 1 µM i-CDK9,100%
same,remaining binding at 10 µM,BRAF; 10 µM i-CDK9,70%
same,% Retention on Solid Support,PFTK1; 1 µM i-CDK9,76%
same,% Retention on Solid Support,PFTK1; 10 µM i-CDK9,5.4%
same,remaining binding at 1 µM,CDK5; 1 µM i-CDK9,100%
same,remaining binding at 10 µM,CDK5; 10 µM i-CDK9,81%
same,remaining binding at 1 µM,IRAK1; 1 µM i-CDK9,100%
same,remaining binding at 10 µM,IRAK1; 10 µM i-CDK9,73%
same,remaining binding at 1 µM,CLK4; 1 µM i-CDK9,18%
same,remaining binding at 10 µM,CLK4; 10 µM i-CDK9,4.2%
same,remaining binding at 1 µM,p38-beta; 1 µM i-CDK9,66%
same,remaining binding at 10 µM,p38-beta; 10 µM i-CDK9,100%
same,remaining binding at 1 µM,RIPK5,100%
same,remaining binding at 1 µM,CDK7; 1 µM i-CDK9,14%
same,remaining binding at 10 µM,CDK7; 10 µM i-CDK9,11%
same,% Retention on Solid Support,EGFR(S752-I759del); 1 µM i-CDK9,77%
same,% Retention on Solid Support,EGFR(S752-I759del); 10 µM i-CDK9,53%
same,remaining binding at 1 µM,TRKA; 1 µM i-CDK9,100%
same,remaining binding at 10 µM,TRKA; 10 µM i-CDK9,89%
same,remaining binding at 1 µM,MEK6; 1 µM i-CDK9,96%
same,remaining binding at 10 µM,MEK6; 10 µM i-CDK9,100%
same,remaining binding at 1 µM,CSNK2A1; 1 µM i-CDK9,100%
same,remaining binding at 10 µM,CSNK2A1; 10 µM i-CDK9,100%
same,% Retention on Solid Support,EGFR(L858R); 1 µM i-CDK9,35%
same,% Retention on Solid Support,EGFR(L858R); 10 µM i-CDK9,100%
same,remaining binding at 1 µM,CHEK2; 1 µM i-CDK9,98%
same,remaining binding at 10 µM,CHEK2; 10 µM i-CDK9,100%
same,remaining binding at 1 µM,MYO3B; 1 µM i-CDK9,100%
same,remaining binding at 10 µM,MYO3B; 10 µM i-CDK9,36%
same,remaining binding at 1 µM,MERTK; 1 µM i-CDK9,100%
same,remaining binding at 10 µM,MERTK; 10 µM i-CDK9,60%
same,remaining binding at 1 µM,MAP3K15; 1 µM i-CDK9,100%
same,remaining binding at 10 µM,MAP3K15; 10 µM i-CDK9,100%
same,remaining binding at 1 µM,DAPK2; 1 µM i-CDK9,90%
same,remaining binding at 10 µM,DAPK2; 10 µM i-CDK9,80%
same,remaining binding at 1 µM,EPHA1; 1 µM i-CDK9,99%
same,remaining binding at 10 µM,EPHA1; 10 µM i-CDK9,100%
same,remaining binding at 1 µM,GRK7; 1 µM i-CDK9,100%
same,remaining binding at 10 µM,GRK7; 10 µM i-CDK9,84%
same,remaining binding at 1 µM,CAMK4; 1 µM i-CDK9,78%
same,remaining binding at 10 µM,CAMK4; 10 µM i-CDK9,100%
same,remaining binding at 1 µM,INSR; 1 µM i-CDK9,100%
same,remaining binding at 10 µM,INSR; 10 µM i-CDK9,81%
same,% Retention on Solid Support,PRKR; 1 µM i-CDK9,84%
same,% Retention on Solid Support,PRKR; 10 µM i-CDK9,100%
same,% Retention on Solid Support,EGFR(T790M),100%
same,% Retention on Solid Support,EGFR(L861Q); 1 µM i-CDK9,78%
same,% Retention on Solid Support,EGFR(L861Q); 10 µM i-CDK9,74%
same,% Retention on Solid Support,EGFR(E746-A750del); 1 µM i-CDK9,0%
same,% Retention on Solid Support,EGFR(E746-A750del); 10 µM i-CDK9,78%
same,remaining binding at 1 µM,NEK9; 1 µM i-CDK9,100%
same,remaining binding at 10 µM,NEK9; 10 µM i-CDK9,100%

# — publication PMC4490784, “Compensatory induction of MYC expression by sustained CDK9 inhibition via a BRD4-dependent mechanism” (eLife, 2015)
